Our source for the IC50 values is patent EP3936128A1, “ACTIVE SUBSTANCE AGAINST PROTOZOA” (Christian-Albrechts-Universität zu Kiel, priority 2020, dated 2022).

Type in all cases: cell-based
The target of test [1] is T1, PfFNT G107S (Plasmodium falciparum, UniProt O77389, G107S).
T1 construct: expressed in transfected cells; host or cells: Saccharomyces cerevisiae W303-1A jen1Δ ady2Δ, plasmid pDR196
T1 sequence (O77389 1-309 G107S): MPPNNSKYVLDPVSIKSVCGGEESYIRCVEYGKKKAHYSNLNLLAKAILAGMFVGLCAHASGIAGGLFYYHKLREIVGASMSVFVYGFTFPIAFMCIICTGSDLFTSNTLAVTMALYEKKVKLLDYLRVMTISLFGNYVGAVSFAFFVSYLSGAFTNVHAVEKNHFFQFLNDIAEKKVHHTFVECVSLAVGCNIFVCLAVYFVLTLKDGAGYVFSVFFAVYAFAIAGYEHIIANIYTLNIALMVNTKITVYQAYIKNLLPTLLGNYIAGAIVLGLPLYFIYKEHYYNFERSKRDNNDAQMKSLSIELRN
As to the kind of experiment: Inhibition of radiolabelled L-lactate uptake in yeast expressing G107S mutant PfFNT. As to the method: (§1) Plasmodium falciparum were kept in culture in 5% 0+ erythrocytes in RPMI 1640 medium containing 0,5% Albumax at 37 °C. […] Medium containing test compounds was exchanged every 24 h. In order to test for the propensity of parasites to develop resistance to a given substance, 3D7 parasites were grown in the presence of 3 x IC50 of a test for 30 days. Thereafter the drug was removed by exchanging the medium, and the day recorded when parasites resurfaced in the culture. As an alternative to Plasmodium falciparum, the FNT of the wild-type plasmodium (available under accession number PF3D7_0316600 in the data bank PlasmoDB) and the FNT (G107S mutant FNT) of the resistant plasmodia were expressed in the yeast Saccharomyces cerevisiae W303-1A jen1Δ ady2Δ from plasmid pDR196 (PMA promoter). In the yeast, the endogenous genes for the monocarboxylate transporter Jen1p (sequence accession No. CAA82062 NCBI) and Ady2p (sequence accession No. KZV12856) were deleted (obtained from M. Casal, Universidade do Minho, Portugal).
(§2) This yeast was grown in SD medium with addition of adenine, histidine, leucine, tryptophan and 2 % (wt/v) glucose at 30 °C up to an OD600 of 0.8 to 1.0, harvested by centrifugation and washed once with water and centrifuged down again, and suspended in 50 mM HEPES/TRIS (pH 6.8) and adjusted to an OD600 of 50± 10% and stored on ice. For contacting with one of the compounds a compound of one step of a dilution series in DMSO was provided in a reaction vessel and onto this 80 µL of the yeast suspension were pipetted. After an incubation on ice for 15 to 20 min 20 µL 5 mM Na-L-lactate plus 0.04 µCi radioactively labelled L-(1-^14C) lactate was added. The lactate concentration obtained was 1 mM. After an incubation of 30 s the uptake of lactate was stopped by a rapid dilution by means of adding of 1 ml ice cold water. From the yeast suspension diluted this way the yeast cells were brought onto a filter membrane by vacuum filtration, washed with 7 ml cold water and transferred with the filter membrane into 3 ml scintillation cocktail. After 24 h of incubation at 18 °C in the scintillation cocktail, in which the cells were lysed, the amount of radioactively labelled lactate was measured by means of a scintillation counter. The total amount of lactate which was taken up by the yeast was calculated from the measured amount of radioactively labelled lactate. As a positive control the yeast was treated equally in parallel testing with DMSO without one of the compounds and was regarded as 100% FNT activity, respectively 0% inhibition. In tests with the compound a lower amount of lactate taken up was found in comparison to the parallel positive control. As a negative control yeast was treated in parallel in which the endogenous genes for the monocarboxylate transporters Jen1p and Ady2p were deleted, but the FNT from plasmodium was not expressed. This negative control was regarded as 0% FNT activity, respectively 100% inhibition.

Test [2] addresses T2, PfFNT wildtype (Plasmodium falciparum, UniProt O77389).
T2 construct: expressed in transfected cells; host or cells: Saccharomyces cerevisiae W303-1A jen1Δ ady2Δ, plasmid pDR196
The test can be described thus: Inhibition of radiolabelled L-lactate uptake in yeast expressing wild-type PfFNT. On the procedure: as §1, §2

Test [3] has as its target FNT of P. knowlesi (PkFNT) (Plasmodium knowlesi, UniProt A0A679KXN5). The test can be described thus: Inhibition of the FNT of P. knowlesi.
For test [4], the target named is FNT of P. vivax (PvFNT) (Plasmodium vivax, UniProt A0A1G4GWI6). The test can be described thus: Inhibition of the FNT of P. vivax.
The target of test [5] is FNT of P. ovale (PoFNT) (Plasmodium ovale, UniProt A0A1D3TGZ2). As to the kind of experiment: Inhibition of the FNT of P. ovale.
Test [6] deals with FNT of P. malariae (PmFNT) (Plasmodium malariae, UniProt A0A1C3KYI2). As to the kind of experiment: Inhibition of the FNT of P. malariae.
Where [7] appears, read: G107S mutant FNT, 1 mM lactate, pH 6.8, 30 s uptake, read-out: PfFNT G107S IC50.
[8] abbreviates: read-out: IC50 for the FNT of P. vivax (PvFNT).

Like-named read-outs stand apart in the source and are kept apart here.

FNT of P. knowlesi (PkFNT), sequence (A0A679KXN5 whole entry): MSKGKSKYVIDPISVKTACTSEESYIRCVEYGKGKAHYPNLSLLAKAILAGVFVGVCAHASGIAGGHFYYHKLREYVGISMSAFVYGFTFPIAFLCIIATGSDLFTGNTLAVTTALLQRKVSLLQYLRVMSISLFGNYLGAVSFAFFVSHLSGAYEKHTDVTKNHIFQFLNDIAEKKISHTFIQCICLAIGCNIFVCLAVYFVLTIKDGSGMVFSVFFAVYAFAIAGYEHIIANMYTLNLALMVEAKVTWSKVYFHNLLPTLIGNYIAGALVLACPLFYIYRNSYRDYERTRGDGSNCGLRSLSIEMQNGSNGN
T2 sequence (O77389 whole entry): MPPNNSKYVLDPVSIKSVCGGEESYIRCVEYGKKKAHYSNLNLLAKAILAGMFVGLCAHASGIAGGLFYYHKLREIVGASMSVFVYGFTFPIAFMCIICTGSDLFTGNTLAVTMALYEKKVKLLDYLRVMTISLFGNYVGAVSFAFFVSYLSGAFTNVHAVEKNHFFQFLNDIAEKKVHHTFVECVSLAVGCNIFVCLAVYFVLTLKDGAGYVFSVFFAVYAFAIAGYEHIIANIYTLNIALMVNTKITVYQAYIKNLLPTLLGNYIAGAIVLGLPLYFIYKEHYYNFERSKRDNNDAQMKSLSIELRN
FNT of P. vivax (PvFNT), sequence (A0A1G4GWI6 whole entry): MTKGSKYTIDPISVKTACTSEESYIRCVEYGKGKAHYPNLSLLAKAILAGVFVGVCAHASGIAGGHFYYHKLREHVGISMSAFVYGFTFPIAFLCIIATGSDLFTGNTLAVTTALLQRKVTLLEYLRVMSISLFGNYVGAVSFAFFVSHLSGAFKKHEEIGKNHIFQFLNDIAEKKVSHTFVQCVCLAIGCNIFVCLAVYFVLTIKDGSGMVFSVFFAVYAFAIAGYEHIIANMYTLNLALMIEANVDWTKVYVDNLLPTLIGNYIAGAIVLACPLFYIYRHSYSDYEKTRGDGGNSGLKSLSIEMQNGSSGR
FNT of P. ovale (PoFNT), sequence (A0A1D3TGZ2 whole entry): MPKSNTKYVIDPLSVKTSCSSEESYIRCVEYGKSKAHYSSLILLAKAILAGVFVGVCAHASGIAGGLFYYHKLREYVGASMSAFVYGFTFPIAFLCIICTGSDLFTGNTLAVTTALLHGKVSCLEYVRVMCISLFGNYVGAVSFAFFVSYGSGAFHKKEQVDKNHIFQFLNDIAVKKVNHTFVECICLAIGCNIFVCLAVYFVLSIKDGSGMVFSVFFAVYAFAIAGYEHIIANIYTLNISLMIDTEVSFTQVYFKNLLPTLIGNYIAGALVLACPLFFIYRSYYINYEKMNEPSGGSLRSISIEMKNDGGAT
FNT of P. malariae (PmFNT), sequence (A0A1C3KYI2 whole entry): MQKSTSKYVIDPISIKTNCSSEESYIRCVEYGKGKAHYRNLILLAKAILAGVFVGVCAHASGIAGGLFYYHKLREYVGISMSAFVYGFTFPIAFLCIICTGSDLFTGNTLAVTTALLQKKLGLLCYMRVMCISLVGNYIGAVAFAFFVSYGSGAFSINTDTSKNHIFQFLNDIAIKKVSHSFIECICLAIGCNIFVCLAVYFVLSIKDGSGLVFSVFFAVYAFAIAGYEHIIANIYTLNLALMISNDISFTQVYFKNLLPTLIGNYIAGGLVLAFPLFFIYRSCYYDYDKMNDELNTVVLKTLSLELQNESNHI

In general, IC50 refers to the point on the concentration scale where inhibition reaches its midpoint. Consider `COc1ccc(C(=O)C=C(O)C(F)(F)C(F)(F)F)c(O)c1` [compound [1], reference compound], for which the IC50 in test [1] (setting [7]) stood at 21 ± 1 µM; in test [2], 170 ± 10 nM; in test [3], 212 ± 70 nM; in test [4] (setting [8]), 69 ± 3 nM.
As to `COc1ccc(C(=O)C=C(O)C(F)(F)C(F)(F)F)cc1` [compound [2], reference compound], the IC50 in test [5] was about 900 nM; in test [6] it was 391 ± 50 nM; in test [1] (setting [7]) it was 2.7 ± 0.2 µM; in test [2] it was 140 ± 10 nM; in test [3], 985 ± 80 nM; in test [4] (setting [8]) it was 249 ± 80 nM.
On to `CC(C)(O)CC(=O)C=C(O)C(F)(F)C(F)(F)F` [compound [3], reference compound], for which the IC50 in test [1] (setting [7]) stood at 490 ± 20 µM; in test [2], 1100 ± 100 nM.
For `O=C(C=C(O)C(F)(F)C(F)(F)F)c1ccc[nH]1` [compound [4], reference compound] the same measures were 12 ± 1 µM and 160 ± 10 nM.
As for `O=C(C=C(O)C(F)(F)C(F)(F)F)c1cc[nH]c1` [compound [5], reference compound], the IC50 in test [1] (setting [7]) amounted to 13 ± 1 µM; in test [2], 200 ± 10 nM.
As for `Cn1ccc(C(=O)C=C(O)C(F)(F)C(F)(F)F)c1` [compound [6], reference compound], the IC50 turned out to be 14 ± 1 µM in test [1] (setting [7]) and 130 ± 10 nM in test [2].
Take `O=C(C=C(O)C(F)(F)C(F)(F)F)c1cc2ccccc2o1` [compound [7], reference compound]: the IC50 in test [1] (setting [7]) was 17 ± 2 µM; in test [2], 190 ± 10 nM.
Regarding `O=C(C=C(O)C(F)(F)C(F)(F)F)c1cccnn1` [compound [12], 4,4,5,5,5-pentafluoro-3-hydroxy-1-pyridazin-3-yl-pent-2-en-1-one], the IC50 in test [1] was 3.8 ± 0.8 µM; in test [2], 860 ± 30 nM.
`O=C(C=C(O)C(F)(F)C(F)(F)F)c1cnccn1` [compound [13], 4,4,5,5,5-pentafluoro-3-hydroxy-1-pyrazin-2-yl-pent-2-en-1-one]: the IC50 in test [1] was determined as 1.2 ± 0.3 µM; in test [2], 460 ± 30 nM.
For `O=C(C=C(O)C(F)(F)C(F)(F)F)c1ccncc1` [compound [14], 4,4,5,5,5-pentafluoro-3-hydroxy-1-(4-pyridyl)pent-2-en-1-one] the same measures were 22 ± 7 µM and 150 ± 30 nM.
Taken in the same sequence, the figures for `O=C(C=C(O)C(F)(F)C(F)(F)F)c1ccccn1` [compound [15], 4,4,5,5,5-pentafluoro-3-hydroxy-1-(2-pyridyl)pent-2-en-1-one] were 0.58 ± 0.09 µM and 150 ± 10 nM.
In the case of `O=C(C=C(O)C(F)(F)C(F)(F)F)c1cccnc1` [compound [16], 4,4,5,5,5-pentafluoro-3-hydroxy-1-(3-pyridyl)pent-2-en-1-one], the concentration for half-maximal inhibition (IC50) in test [5] stood at 213 ± 30 nM; in test [6], 214 ± 20 nM; in test [1] it was 0.63 ± 0.05 µM; in test [2], 110 ± 10 nM; in test [3], 874 ± 60 nM; in test [4], 229 ± 10 nM.
`O=C(C=C(O)C(F)(F)C(F)(F)F)c1cnc2ccccc2c1` [compound [17], 4,4,5,5,5-pentafluoro-3-hydroxy-1-(3-quinolyl)pent-2-en-1-one]: the half-maximal inhibitory concentration (IC50) worked out at 96 ± 0.8 µM in test [1] (read-out: PfFNT G107S IC50, G107S mutant FNT, 1 mM lactate, pH 6.8, 30 s uptake) and 240 ± 40 nM in test [2].
As for `Cc1ccc(C(=O)C=C(O)C(F)(F)C(F)(F)F)cn1` [compound [18], 4,4,5,5,5-pentafluoro-3-hydroxy-1-(6-methyl-3-pyridyl)pent-2-en-1-one], the IC50 in test [1] is 1.7 ± 0.3 µM; in test [2] it was 150 ± 10 nM.
Taken in the same sequence, the figures for `O=C(C=C(O)C(F)(F)C(F)(F)F)c1ccc(Cl)cn1` [compound [19], 1-(5-chloropyridin-2-yl)-4,4,5,5,5-pentafluoro-3-hydroxypent-2-en-1-one] were 0.51 ± 0.09 µM and 230 ± 70 nM.
Taken in the same sequence, the figures for `COc1ccc(C(=O)C=C(O)C(F)(F)C(F)(F)F)cn1` [compound [20], 4,4,5,5,5-pentafluoro-3-hydroxy-1-(6-methoxy-3-pyridyl)pent-2-en-1-one] were 0.26 ± 0.05 µM and 110 ± 10 nM.
`O=C(C=C(O)C(F)(F)CO)c1cccnc1` [compound [21], 4,4-difluoro-3,5-dihydroxy-1-(3-pyridyl)pent-2-en-1-one]: the midpoint of inhibition in test [2], the IC50, lay at 5500 nM.
As to `CCCCC(F)(F)C(O)=CC(=O)c1cccnc1` [compound [22], 4,4-difluoro-3-hydroxy-1-(3-pyridyl)oct-2-en-1-one], the IC50 came to 24 ± 6 µM in test [1] (setting [7]) and 360 ± 50 nM in test [2].
